Data published in US11026991B2, “Compositions and methods of use thereof to promote muscle growth and function” (Worlds Greatest Ingredients, LP, priority 2018, dated 2021).
Where two headings read alike, the source gives them in different places.

Details: in vivo; for Plasma Isoleucine Concentrations After Ingestion / Plasma Leucine Concentrations After Ingestion / Plasma Lysine Concentrations After Ingestion / Plasma Methionine Concentrations After Ingestion / Plasma Phenylalanine Concentrations After Ingestion / Plasma Threonine Concentrations After Ingestion / Plasma Tryptophan Concentrations After Ingestion / Plasma Valine Concentrations After Ingestion / Total Plasma BCAA Concentrations After Ingestion / Total Plasma EAA Concentrations After Ingestion / Plasma Leucine Delta Change Relative to Baseline Values / Plasma Leucine Percent Change Relative to Baseline Values / relative increase in plasma leucine from Pre / elevation in plasma leucine relative to baseline, times greater than the other condition: male, human
Procedure: The subject came into the laboratory fasted prior to the testing days. […] On Day 1, they were randomized to consume 1 of the 2 conditions. Following, consumption of the fluid mixture (8 oz. water), plasma amino acids were measured at 30, 60, 90, and 120 minutes. A 72-hour washout took place followed by the 2nd condition following the same procedures.
The dosage used in this study was either 2 grams of di-leucine (condition Ce) or 2 grams of leucine (condition C4).

**Q.** Which “increase in plasma lysine, times greater than the other condition” value does the source give for `CC(C)C[C@H](N)C(=O)O` [Condition C4, leucine] here?
**A.** 19 ×

**Q.** What about the “increases in total EAA concentration relative to baseline (range)” value of the same compound?
**A.** 9.4% to 16.3%

**Q.** What about the “plasma phenylalanine change relative to Pre values (range)” value of the same compound?
**A.** −16.0% to −3.5%

**Q.** And the “Plasma Isoleucine Concentrations After Ingestion” value?
**A.** 45.75 nmol/L

**Q.** And the “Plasma Leucine Concentrations After Ingestion” value?
**A.** 92.25 nmol/L

**Q.** What about the “Plasma Lysine Concentrations After Ingestion” value of the same compound?
**A.** 121.19 nmol/L

**Q.** And the “Plasma Methionine Concentrations After Ingestion” value?
**A.** 18.77 nmol/L

**Q.** And the “Plasma Phenylalanine Concentrations After Ingestion” value?
**A.** 48.61 nmol/L

**Q.** And the “Plasma Threonine Concentrations After Ingestion” value?
**A.** 87.38 nmol/L

**Q.** What about the “Plasma Tryptophan Concentrations After Ingestion” value of the same compound?
**A.** 45.00 nmol/L

**Q.** What about the “Plasma Valine Concentrations After Ingestion” value of the same compound?
**A.** 230.43 nmol/L

**Q.** And the “Total Plasma BCAA Concentrations After Ingestion” value?
**A.** 368.43 nmol/L

**Q.** And the “Total Plasma EAA Concentrations After Ingestion” value?
**A.** 689.38 nmol/L

**Q.** What about the “Plasma Isoleucine Concentrations After Ingestion” value (30 min) of the same compound?
**A.** 34.44 nmol/L

**Q.** And the “Plasma Leucine Concentrations After Ingestion” value (30 min)?
**A.** 198.33 nmol/L

**Q.** What about the “Plasma Leucine Delta Change Relative to Baseline Values” (30 min) of the same compound?
**A.** 106.09 nmol/L

**Q.** What about the “Plasma Leucine Percent Change Relative to Baseline Values” (30 min) of the same compound?
**A.** 115.0%

**Q.** And the “Plasma Lysine Concentrations After Ingestion” value (30 min)?
**A.** 135.48 nmol/L

**Q.** What about the “Plasma Methionine Concentrations After Ingestion” value (30 min) of the same compound?
**A.** 16.61 nmol/L

**Q.** And the “Plasma Phenylalanine Concentrations After Ingestion” value (30 min)?
**A.** 42.44 nmol/L

**Q.** What about the “Plasma Threonine Concentrations After Ingestion” value (30 min) of the same compound?
**A.** 76.42 nmol/L

**Q.** What about the “Plasma Tryptophan Concentrations After Ingestion” value (30 min) of the same compound?
**A.** 40.12 nmol/L

**Q.** And the “Plasma Valine Concentrations After Ingestion” value (30 min)?
**A.** 210.39 nmol/L

**Q.** What about the “Total Plasma BCAA Concentrations After Ingestion” value (30 min) of the same compound?
**A.** 443.16 nmol/L

**Q.** And the “Total Plasma EAA Concentrations After Ingestion” value (30 min)?
**A.** 754.23 nmol/L

**Q.** And the “relative increase in plasma leucine from Pre” value (30 min)?
**A.** 106.09 nmol/mL

**Q.** And the “Plasma Isoleucine Concentrations After Ingestion” value (60 min)?
**A.** 33.30 nmol/L

**Q.** And the “Plasma Leucine Concentrations After Ingestion” value (60 min)?
**A.** 146.70 nmol/L

**Q.** What about the “Plasma Leucine Delta Change Relative to Baseline Values” (60 min) of the same compound?
**A.** 54.45 nmol/L

**Q.** What about the “Plasma Leucine Percent Change Relative to Baseline Values” (60 min) of the same compound?
**A.** 59.0%

**Q.** What about the “Plasma Lysine Concentrations After Ingestion” value (60 min) of the same compound?
**A.** 128.45 nmol/L

**Q.** And the “Plasma Methionine Concentrations After Ingestion” value (60 min)?
**A.** 15.94 nmol/L

**Q.** What about the “Plasma Phenylalanine Concentrations After Ingestion” value (60 min) of the same compound?
**A.** 40.84 nmol/L

**Q.** What about the “Plasma Threonine Concentrations After Ingestion” value (60 min) of the same compound?
**A.** 75.83 nmol/L

**Q.** What about the “Plasma Tryptophan Concentrations After Ingestion” value (60 min) of the same compound?
**A.** 43.54 nmol/L

**Q.** What about the “Plasma Valine Concentrations After Ingestion” value (60 min) of the same compound?
**A.** 200.61 nmol/L

**Q.** And the “Total Plasma BCAA Concentrations After Ingestion” value (60 min)?
**A.** 380.61 nmol/L

**Q.** What about the “Total Plasma EAA Concentrations After Ingestion” value (60 min) of the same compound?
**A.** 685.20 nmol/L

**Q.** And the “relative increase in plasma leucine from Pre” value (60 min)?
**A.** 54.45 nmol/mL

**Q.** What about the “Plasma Isoleucine Concentrations After Ingestion” value (90 min) of the same compound?
**A.** 40.37 nmol/L

**Q.** And the “Plasma Leucine Concentrations After Ingestion” value (90 min)?
**A.** 181.67 nmol/L

**Q.** And the “Plasma Leucine Delta Change Relative to Baseline Values” (90 min)?
**A.** 89.42 nmol/L

**Q.** What about the “Plasma Leucine Percent Change Relative to Baseline Values” (90 min) of the same compound?
**A.** 96.9%

**Q.** What about the “Plasma Lysine Concentrations After Ingestion” value (90 min) of the same compound?
**A.** 134.15 nmol/L

**Q.** What about the “Plasma Methionine Concentrations After Ingestion” value (90 min) of the same compound?
**A.** 19.30 nmol/L

**Q.** What about the “Plasma Phenylalanine Concentrations After Ingestion” value (90 min) of the same compound?
**A.** 46.94 nmol/L

**Q.** What about the “Plasma Threonine Concentrations After Ingestion” value (90 min) of the same compound?
**A.** 91.05 nmol/L

**Q.** And the “Plasma Tryptophan Concentrations After Ingestion” value (90 min)?
**A.** 46.58 nmol/L

**Q.** What about the “Plasma Valine Concentrations After Ingestion” value (90 min) of the same compound?
**A.** 225.20 nmol/L

**Q.** And the “Total Plasma BCAA Concentrations After Ingestion” value (90 min)?
**A.** 447.24 nmol/L

**Q.** And the “Total Plasma EAA Concentrations After Ingestion” value (90 min)?
**A.** 785.26 nmol/L

**Q.** What about the “elevation in plasma leucine relative to baseline, times greater than the other condition” value (90 min) of the same compound?
**A.** 2.6 ×

**Q.** And the “Plasma Isoleucine Concentrations After Ingestion” value (120 min)?
**A.** 36.47 nmol/L

**Q.** What about the “Plasma Leucine Concentrations After Ingestion” value (120 min) of the same compound?
**A.** 158.84 nmol/L

**Q.** What about the “Plasma Leucine Delta Change Relative to Baseline Values” (120 min) of the same compound?
**A.** 66.59 nmol/L

**Q.** And the “Plasma Leucine Percent Change Relative to Baseline Values” (120 min)?
**A.** 72.2%

**Q.** And the “Plasma Lysine Concentrations After Ingestion” value (120 min)?
**A.** 171.18 nmol/L

**Q.** What about the “Plasma Methionine Concentrations After Ingestion” value (120 min) of the same compound?
**A.** 19.19 nmol/L

**Q.** What about the “Plasma Phenylalanine Concentrations After Ingestion” value (120 min) of the same compound?
**A.** 45.40 nmol/L

**Q.** What about the “Plasma Threonine Concentrations After Ingestion” value (120 min) of the same compound?
**A.** 90.94 nmol/L

**Q.** What about the “Plasma Tryptophan Concentrations After Ingestion” value (120 min) of the same compound?
**A.** 44.81 nmol/L

**Q.** And the “Plasma Valine Concentrations After Ingestion” value (120 min)?
**A.** 234.78 nmol/L

**Q.** And the “Total Plasma BCAA Concentrations After Ingestion” value (120 min)?
**A.** 430.08 nmol/L

**Q.** And the “Total Plasma EAA Concentrations After Ingestion” value (120 min)?
**A.** 801.61 nmol/L

**Q.** And the “elevation in plasma leucine relative to baseline, times greater than the other condition” value (120 min)?
**A.** 1.5 ×
